Reference: article PMC12505902, “Inhibitors of trehalose-6-phosphate synthase activity in fungal pathogens compromise thermal tolerance pathways” (mBio, 2025)

Columns and labels:
6xHis-CnTps1 = 6xHis-CnTps1 (Cryptococcus neoformans var. grubii, UniProt J9VJZ1); assay: Glo-melt thermal shift assay; format: binding; details: 1 µM protein, 2 mM 4456dh (Fig 2 legend), incubated overnight at 4°C
Protocol: (§1) Fig 2 4456dh binds Tps1 and inhibits Tps1 activity. (A) Structure of 4456dh. (B and C) Glo-melt thermal shift assays reveal 4456dh destabilizes 6xHis-CaTps1 (B) and 6xHis-CnTps1 (C). The first derivative of the raw data was used to determine the melting temperature of 1 µM 6xHis-CaTps1 (B) and 1 µM 6xHis-CnTps1 (C) treated without (black) or with 2 mM 4456dh (red). […] The resulting dose-response curves were fitted to a one-site binding model to extract Kd values; the SD was calculated using the Kd values from each independent experiment (n = 3). (F) Tps1 enzyme activity assay with 5 µM 6xHis-CaTps1 (F) and 6xHis-CnTps1 (G) ±1 mM 4456dh. Error bars represent SE. Comparison to control, untreated 6xHis-CaTps1, was performed using Student’s t-test; **P < 0.01 and ***P < 0.001.
(§2) Thermal shift assays were completed to determine if 4456dh binds Tps1. […]
(§3) 82 determined by SDS-PAGE analysis, were pooled and concentrated to 1 mg/mL for downstream […]
(§4) 93 The data were acquired with MO.Control 1.5.3 (NanoTemper Technologies GmbH). Recorded
(§5) 94 data were analyzed with MO.Affinity Analysis 2.2.7 (NanoTemper Technologies GmbH). […]
(§6) 100 2X Glo-melt dye. Thermal denaturation was measured using an RT-PCR thermocycler (BioRad) […]
(§7) 102 determined by identifying the inflection point of the derivative data. […]
(§8) 104 The catalytic activity of C. albicans Tps1 and C. neoformans Tps1 was measured via a continuous […]

6xHis-CaTps1 = target: T1, 6xHis-CaTps1 (Candida albicans, UniProt Q92410); assay: Glo-melt thermal shift assay; format: binding; details: 1 µM protein, 2 mM 4456dh (Fig 2 legend), incubated overnight at 4°C
T1 construct: Briefly, the full-length; thrombin cleavage site (pET-28a linker) (N); made in house; host or cells: E. coli BL21(DE3)pLysS
T1 sequence (Q92410 1-478): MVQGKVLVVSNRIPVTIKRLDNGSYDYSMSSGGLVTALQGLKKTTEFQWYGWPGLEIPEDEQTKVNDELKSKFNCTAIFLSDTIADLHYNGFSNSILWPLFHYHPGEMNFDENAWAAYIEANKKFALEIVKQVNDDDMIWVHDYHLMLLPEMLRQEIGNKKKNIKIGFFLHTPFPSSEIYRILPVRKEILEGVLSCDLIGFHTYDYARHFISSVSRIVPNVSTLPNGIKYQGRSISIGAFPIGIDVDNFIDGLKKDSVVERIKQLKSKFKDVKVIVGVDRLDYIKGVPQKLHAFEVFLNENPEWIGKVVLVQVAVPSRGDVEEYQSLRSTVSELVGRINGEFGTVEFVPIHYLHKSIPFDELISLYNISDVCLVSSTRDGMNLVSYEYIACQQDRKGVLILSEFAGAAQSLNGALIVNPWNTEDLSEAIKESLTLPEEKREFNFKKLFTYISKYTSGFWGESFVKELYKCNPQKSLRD
Protocol: as §1, §2, §3, §4, §5, §6, §7, §8

Chain of 6xHis-CnTps1 (J9VJZ1 entry or part of it): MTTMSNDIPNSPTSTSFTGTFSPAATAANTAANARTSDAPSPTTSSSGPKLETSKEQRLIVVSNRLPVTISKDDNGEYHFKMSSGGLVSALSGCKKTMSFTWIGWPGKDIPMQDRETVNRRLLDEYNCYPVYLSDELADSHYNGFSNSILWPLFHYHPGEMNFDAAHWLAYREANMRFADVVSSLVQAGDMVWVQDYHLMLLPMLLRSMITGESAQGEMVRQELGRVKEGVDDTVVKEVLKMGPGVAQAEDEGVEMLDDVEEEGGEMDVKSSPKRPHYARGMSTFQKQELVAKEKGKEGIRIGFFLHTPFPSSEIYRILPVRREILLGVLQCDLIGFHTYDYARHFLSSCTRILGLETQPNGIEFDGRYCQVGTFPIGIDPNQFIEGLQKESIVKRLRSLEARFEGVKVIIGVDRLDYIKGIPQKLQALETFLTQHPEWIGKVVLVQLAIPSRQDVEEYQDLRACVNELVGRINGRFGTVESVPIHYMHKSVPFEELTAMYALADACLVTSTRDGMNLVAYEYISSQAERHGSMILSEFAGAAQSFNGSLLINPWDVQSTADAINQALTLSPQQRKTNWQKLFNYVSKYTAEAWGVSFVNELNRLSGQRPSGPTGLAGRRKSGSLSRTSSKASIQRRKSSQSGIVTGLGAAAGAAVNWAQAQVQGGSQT

Cn1cc(-c2csc(NC(=O)Cc3ccccn3)n2)cn1 [Compound 4456dh]
effect on melting temperature (6xHis-CnTps1): decreased the melting temperature | effect on melting temperature (6xHis-CaTps1): decreased the melting temperature
